For assay [1], the system named is DYRK1A. Further details: method as in Khan et al., 2006; Yang et al., 2009. Conditions: ref Khan et al., 2006; Yang et al., 2009; cited from earlier work.
For the next assay, the system named is vimentin. Further details: method as in Khan et al., 2006; Yang et al., 2009. The note with it: ref Khan et al., 2006; Yang et al., 2009; cited from earlier work.
Another assay concerns the target laminin receptor. Further details: method as in Khan et al., 2006; Yang et al., 2009. The note with it: ref Khan et al., 2006; Yang et al., 2009; cited from earlier work.
Another assay has as its target CDK2/cyclin A (Homo sapiens, UniProt P24941). Briefly: Recombinant protein kinase assay, CDK2/cyclin A. In kind it is biochemical. Conditions: 15 µM ATP.
The target in a further assay is CDK5/p25 (Homo sapiens, UniProt Q00535). The experiment in a line: Recombinant protein kinase assay, CDK5/p25. In kind it is biochemical. The note with it: 15 µM ATP.
For a further assay, the target named is T1, CDK9/cyclin T (Homo sapiens, UniProt P50750).
T1 construct: made in house; host or cells: insect cells
The experiment in a line: Recombinant protein kinase assay, CDK9/cyclin T. The assay is classed as biochemical. Conditions: 15 µM ATP.

The next assay concerns the target CLK2 (Mus musculus, UniProt O35491). Briefly: Recombinant protein kinase assay, CLK2. The assay is classed as biochemical. Conditions: 15 µM ATP; read-out: IC50 CLK2.
Another assay has as its target CLK3 (Mus musculus, UniProt O35492). The experiment in a line: Recombinant protein kinase assay, CLK3. The assay is classed as biochemical. Conditions: 15 µM ATP; read-out: IC50 CLK3.
Assay [2] deals with DYRK1A (Homo sapiens, UniProt Q13627). The experiment in a line: Recombinant protein kinase assay, DYRK1A. In kind it is biochemical. Conditions: 15 µM ATP.
The target in a further assay is DYRK3 (Homo sapiens, UniProt O43781). The experiment in a line: Recombinant protein kinase assay, DYRK3. In kind it is biochemical. The note with it: 15 µM ATP.
For another assay, the target named is T2, CK2 (Homo sapiens, UniProt P68400).
T2 construct: Cochet
Briefly: Recombinant protein kinase assay, CK2. The assay is classed as biochemical. Conditions: 15 µM ATP.

The test system of the next assay is Tg(Dyrk1a) mice. The experiment in a line: Novel object recognition (NOR) test in Tg(Dyrk1a) mice. The assay is classed as in vivo, mouse. The note with it: daily i.p. treatment for 19 days.
Assay [3] addresses T3, DYRK1A (Mus musculus, UniProt Q61214).
T3 construct: DYRK1A was purified from brain extracts by immunoprecipitation; from tissue; host or cells: mouse brain (wt, Tg(Dyrk1a), Ts65Dn)
The experiment in a line: Brain DYRK1A catalytic activity after treatment, Tg(Dyrk1a) mice. In kind it is in vivo. Conditions: 19 days of treatment. How it is done: Protein kinase assays to measure the catalytic activity of DYRK1A in the brains of the animals treated with or without drugs were performed as follows: frozen half brains were homogenized in lysis buffer (1.2 ml/half brain) using Precellys® homogenizer tubes. After centrifugation at 2800 g for 2×15 s, 1 mg brain extract was incubated with 2 µg DYRK1A (H00001859 M01, Interchim) or GSK3-β (MBS8508391, Emelca Bioscience, France) antibodies at 4°C for 1 h under gentle rotation. Then, 20 µl protein G agarose beads (Thermo Fisher Scientific, France), previously washed three times with bead buffer (50 mM Tris pH 7.4, 5 mM NaF, 250 mM NaCl, 5 mM EDTA, 5 mM EGTA, 0.1% Nonidet P-40 and protease inhibitor cocktail from Roche, France), were added to the mix and gently rotated at 4°C for 30 min. After a 1 min spin at 10,000 g and removal of the supernatant, the pelleted immune complexes were washed three times with bead buffer, and a last time with Buffer C (60 mM β-glycerophosphate, 30 mM p-nitrophenolphosphate, 25 mM Mops pH 7.2, 5 mM EGTA, 15 mM MgCl2, 2 mM dithiothreitol, 0.1 mM sodium orthovanadate, 1 mM phenylphosphate, protease inhibitor cocktail). DYRK1A or GSK-3 immobilized on beads were assayed in buffer C as described in the Supplementary Materials and Methods with Woodtide ([…]) (1.5 µg/assay) or GSK3-tide ([…]pSED-EEE, where pS stands for phosphorylated serine) as substrates.

Another assay concerns the target CLK1 (Mus musculus, UniProt P22518). The experiment in a line: Recombinant protein kinase assay, CLK1. In kind it is biochemical. Conditions: 15 µM ATP; read-out: IC50 CLK1.
In the next assay the target is CLK4 (Mus musculus, UniProt O35493). Briefly: Recombinant protein kinase assay, CLK4. Conditions: 15 µM ATP. The assay is classed as biochemical.
Another assay has as its target DYRK1B (Homo sapiens, UniProt Q9Y463). Briefly: Recombinant protein kinase assay, DYRK1B. The assay is classed as biochemical. Conditions: 15 µM ATP.
The target of the next assay is DYRK2 (Homo sapiens, UniProt Q92630). Briefly: Recombinant protein kinase assay, DYRK2. In kind it is biochemical. Conditions: 15 µM ATP.
The target of a further assay is PIM1 (Homo sapiens, UniProt P11309). Briefly: Recombinant protein kinase assay, PIM1. The assay is classed as biochemical. The note with it: 15 µM ATP.

We go through 3 compounds from PMC6176987, “Correction of cognitive deficits in mouse models of Down syndrome by a pharmacological inhibitor of DYRK1A” (Disease Models & Mechanisms, 2018).

Structures are written as SMILES. A value given as a limit tells only on which side of the number the result lay.

T2 sequence (P68400 whole entry): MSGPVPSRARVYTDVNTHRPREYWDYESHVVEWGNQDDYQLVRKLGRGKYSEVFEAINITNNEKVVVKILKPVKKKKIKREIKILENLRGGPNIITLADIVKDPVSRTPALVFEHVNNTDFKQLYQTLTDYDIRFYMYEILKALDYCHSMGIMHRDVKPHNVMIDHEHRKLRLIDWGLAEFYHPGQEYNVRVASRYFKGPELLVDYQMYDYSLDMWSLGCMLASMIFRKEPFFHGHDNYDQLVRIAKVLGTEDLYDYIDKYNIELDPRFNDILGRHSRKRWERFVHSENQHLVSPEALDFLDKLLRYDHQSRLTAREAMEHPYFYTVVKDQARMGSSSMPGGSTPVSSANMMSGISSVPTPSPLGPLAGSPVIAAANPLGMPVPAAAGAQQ
Sequence of CDK5/p25 (Q00535 whole entry): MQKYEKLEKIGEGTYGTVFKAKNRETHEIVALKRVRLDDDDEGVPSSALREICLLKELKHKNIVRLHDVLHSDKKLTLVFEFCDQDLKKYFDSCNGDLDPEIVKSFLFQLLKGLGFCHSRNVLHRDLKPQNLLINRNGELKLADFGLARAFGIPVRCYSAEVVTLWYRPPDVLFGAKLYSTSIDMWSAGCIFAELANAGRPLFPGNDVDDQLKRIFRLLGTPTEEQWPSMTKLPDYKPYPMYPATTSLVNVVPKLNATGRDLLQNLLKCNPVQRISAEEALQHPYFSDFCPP
Sequence of CDK5/p25 (Q15078 99-307 partner limits assumed): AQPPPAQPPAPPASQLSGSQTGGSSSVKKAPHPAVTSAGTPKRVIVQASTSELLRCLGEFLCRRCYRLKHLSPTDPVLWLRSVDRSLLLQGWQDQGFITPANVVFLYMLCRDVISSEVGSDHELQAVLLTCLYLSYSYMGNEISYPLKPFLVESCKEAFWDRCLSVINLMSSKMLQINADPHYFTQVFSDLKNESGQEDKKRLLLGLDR
Sequence of CLK2 (O35491 whole entry): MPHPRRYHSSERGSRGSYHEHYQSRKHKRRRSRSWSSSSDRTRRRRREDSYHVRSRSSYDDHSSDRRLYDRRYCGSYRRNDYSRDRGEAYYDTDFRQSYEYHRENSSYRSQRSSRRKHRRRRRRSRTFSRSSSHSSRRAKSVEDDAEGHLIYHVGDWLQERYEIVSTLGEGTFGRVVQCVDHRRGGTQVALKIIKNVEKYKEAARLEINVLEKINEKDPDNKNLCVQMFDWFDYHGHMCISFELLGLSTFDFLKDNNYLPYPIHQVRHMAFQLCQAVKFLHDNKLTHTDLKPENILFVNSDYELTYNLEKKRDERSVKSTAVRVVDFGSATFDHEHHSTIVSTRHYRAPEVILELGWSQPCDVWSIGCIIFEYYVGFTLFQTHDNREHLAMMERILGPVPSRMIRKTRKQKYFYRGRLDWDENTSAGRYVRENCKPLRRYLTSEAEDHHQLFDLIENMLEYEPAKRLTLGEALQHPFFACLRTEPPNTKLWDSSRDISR
Sequence of CLK3 (O35492 whole entry): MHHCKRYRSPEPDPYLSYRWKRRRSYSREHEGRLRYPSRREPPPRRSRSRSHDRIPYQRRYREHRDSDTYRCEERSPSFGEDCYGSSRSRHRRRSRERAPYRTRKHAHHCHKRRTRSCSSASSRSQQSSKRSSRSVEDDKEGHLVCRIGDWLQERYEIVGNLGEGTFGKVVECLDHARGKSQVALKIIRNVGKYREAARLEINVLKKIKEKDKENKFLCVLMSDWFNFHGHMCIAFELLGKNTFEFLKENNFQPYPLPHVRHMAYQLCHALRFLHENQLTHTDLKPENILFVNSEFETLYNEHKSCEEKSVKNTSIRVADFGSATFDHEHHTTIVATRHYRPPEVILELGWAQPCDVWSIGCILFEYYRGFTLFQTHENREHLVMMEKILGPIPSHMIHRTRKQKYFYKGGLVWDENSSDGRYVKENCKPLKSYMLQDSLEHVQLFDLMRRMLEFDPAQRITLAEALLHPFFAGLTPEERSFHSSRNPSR
T1 sequence (P50750 whole entry): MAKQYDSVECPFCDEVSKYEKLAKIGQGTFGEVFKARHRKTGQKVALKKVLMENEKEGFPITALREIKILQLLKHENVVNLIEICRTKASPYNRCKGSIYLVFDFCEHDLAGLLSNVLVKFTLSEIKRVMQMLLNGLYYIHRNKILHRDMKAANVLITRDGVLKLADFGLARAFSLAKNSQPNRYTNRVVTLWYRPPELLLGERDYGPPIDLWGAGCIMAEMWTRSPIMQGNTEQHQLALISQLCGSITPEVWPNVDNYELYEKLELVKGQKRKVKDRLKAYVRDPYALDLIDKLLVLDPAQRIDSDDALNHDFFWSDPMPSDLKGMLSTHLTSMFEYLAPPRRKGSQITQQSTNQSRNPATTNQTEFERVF
T1 sequence (O60563 whole entry partner): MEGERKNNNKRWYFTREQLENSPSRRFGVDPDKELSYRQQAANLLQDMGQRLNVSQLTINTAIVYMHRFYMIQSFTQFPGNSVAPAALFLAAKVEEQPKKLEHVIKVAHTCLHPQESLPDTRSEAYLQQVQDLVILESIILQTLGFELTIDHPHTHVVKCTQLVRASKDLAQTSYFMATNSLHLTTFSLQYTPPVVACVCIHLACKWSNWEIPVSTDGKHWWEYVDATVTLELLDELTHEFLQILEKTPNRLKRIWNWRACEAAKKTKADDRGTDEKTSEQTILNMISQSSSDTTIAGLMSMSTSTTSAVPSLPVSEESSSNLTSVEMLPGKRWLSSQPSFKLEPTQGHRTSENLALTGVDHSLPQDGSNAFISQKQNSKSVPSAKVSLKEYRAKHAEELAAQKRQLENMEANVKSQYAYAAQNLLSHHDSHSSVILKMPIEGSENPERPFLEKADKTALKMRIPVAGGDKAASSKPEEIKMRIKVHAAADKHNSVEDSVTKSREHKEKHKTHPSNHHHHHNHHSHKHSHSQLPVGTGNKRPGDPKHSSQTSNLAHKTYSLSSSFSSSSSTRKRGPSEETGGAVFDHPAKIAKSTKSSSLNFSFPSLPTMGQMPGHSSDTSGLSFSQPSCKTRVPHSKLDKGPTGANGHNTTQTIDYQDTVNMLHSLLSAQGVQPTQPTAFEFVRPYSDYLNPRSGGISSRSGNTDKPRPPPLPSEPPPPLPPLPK
Sequence of DYRK3 (O43781 whole entry): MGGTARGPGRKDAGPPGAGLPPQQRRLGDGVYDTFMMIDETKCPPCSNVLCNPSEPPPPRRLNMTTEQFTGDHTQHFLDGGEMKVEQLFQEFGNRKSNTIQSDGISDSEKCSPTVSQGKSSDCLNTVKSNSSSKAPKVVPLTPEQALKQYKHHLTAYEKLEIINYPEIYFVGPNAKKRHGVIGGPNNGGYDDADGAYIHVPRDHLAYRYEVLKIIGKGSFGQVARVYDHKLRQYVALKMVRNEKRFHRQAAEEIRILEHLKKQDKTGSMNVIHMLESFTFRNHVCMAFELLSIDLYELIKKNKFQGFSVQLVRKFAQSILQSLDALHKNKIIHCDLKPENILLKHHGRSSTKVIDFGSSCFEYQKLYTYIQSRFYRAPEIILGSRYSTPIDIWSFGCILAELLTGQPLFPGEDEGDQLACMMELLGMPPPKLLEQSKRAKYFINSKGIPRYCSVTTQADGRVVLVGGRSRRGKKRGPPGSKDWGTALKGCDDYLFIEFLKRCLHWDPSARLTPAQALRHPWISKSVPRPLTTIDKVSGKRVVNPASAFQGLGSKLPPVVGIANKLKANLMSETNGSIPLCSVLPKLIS
Sequence of PIM1 (P11309 whole entry): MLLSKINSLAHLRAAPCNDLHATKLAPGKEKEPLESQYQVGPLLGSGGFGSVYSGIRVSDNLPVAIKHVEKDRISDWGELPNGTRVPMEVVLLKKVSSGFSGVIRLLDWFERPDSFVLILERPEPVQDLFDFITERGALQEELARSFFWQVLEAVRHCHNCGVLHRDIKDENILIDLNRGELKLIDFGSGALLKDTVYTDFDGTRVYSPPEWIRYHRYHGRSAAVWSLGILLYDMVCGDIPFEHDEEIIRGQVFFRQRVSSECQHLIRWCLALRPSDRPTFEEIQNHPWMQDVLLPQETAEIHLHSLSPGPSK
Sequence of CLK4 (O35493 whole entry): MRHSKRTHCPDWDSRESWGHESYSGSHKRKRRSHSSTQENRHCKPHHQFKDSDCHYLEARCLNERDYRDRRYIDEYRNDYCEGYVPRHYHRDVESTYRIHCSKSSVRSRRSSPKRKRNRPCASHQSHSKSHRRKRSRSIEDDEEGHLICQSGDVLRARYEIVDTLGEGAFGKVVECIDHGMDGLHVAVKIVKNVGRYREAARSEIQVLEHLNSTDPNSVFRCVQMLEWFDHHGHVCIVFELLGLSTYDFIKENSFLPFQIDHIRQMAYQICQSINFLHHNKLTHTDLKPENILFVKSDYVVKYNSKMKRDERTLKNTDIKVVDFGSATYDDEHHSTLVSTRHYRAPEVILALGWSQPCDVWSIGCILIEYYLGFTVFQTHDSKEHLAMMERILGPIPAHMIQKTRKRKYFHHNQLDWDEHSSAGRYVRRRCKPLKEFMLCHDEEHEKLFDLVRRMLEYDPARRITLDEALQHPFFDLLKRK
Sequence of DYRK2 (Q92630 whole entry): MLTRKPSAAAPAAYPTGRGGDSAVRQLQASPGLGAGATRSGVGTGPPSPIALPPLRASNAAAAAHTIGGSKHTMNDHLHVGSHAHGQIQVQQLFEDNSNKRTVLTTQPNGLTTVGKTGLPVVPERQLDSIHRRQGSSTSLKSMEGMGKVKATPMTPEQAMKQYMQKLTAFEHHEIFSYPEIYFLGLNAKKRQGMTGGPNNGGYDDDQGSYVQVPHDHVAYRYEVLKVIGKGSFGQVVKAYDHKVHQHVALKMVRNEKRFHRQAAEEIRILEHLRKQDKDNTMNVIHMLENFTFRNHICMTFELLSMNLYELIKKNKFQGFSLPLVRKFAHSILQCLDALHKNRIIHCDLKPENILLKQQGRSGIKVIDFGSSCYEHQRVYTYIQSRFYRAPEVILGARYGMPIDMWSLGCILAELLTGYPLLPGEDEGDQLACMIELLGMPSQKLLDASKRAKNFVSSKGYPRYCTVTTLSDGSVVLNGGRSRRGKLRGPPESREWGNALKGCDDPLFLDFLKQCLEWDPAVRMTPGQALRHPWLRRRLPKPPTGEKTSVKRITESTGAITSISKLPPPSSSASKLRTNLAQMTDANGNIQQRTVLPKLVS

Regarding `O=C(O[C@@H]1Cc2c(O)cc(O)cc2O[C@@H]1c1cc(O)c(O)c(O)c1)c1cc(O)c(O)c(O)c1` [EGCG, epigallocatechin gallate], the half-maximal inhibitory concentration (IC50) in the assay on DYRK1A [1] was 330 nM; in the assay with vimentin, 3 nM; on laminin receptor it was 40 nM.

For `O=C1NC(Nc2ccccc2)=N/C1=C\c1ccc2c(c1)OCCCO2` [L43], the IC50 on CDK2/cyclin A is > 10000 nM; on CDK5/p25, > 10000 nM; at CDK9/cyclin T, > 10000 nM; on CLK2, > 10000 nM; on CLK3, > 10000 nM; on DYRK1A [2] it was 7400 nM. The IC50 at DYRK3 and at CK2 was > 10000 nM each time. The “Behavioural effect in NOR test” value in the assay on Tg(Dyrk1a) mice is “lack of effects”. Besides, the “Tg(Dyrk1a) brain DYRK1A activity” value at DYRK1A [3] was “did not reduce”.

Consider `COc1cc(/C=C2\N=C(Nc3ccc(N4CCN(C)CC4)cc3)NC2=O)ccc1O` [L99], for which the IC50 at CDK2/cyclin A was > 10000 nM; at CDK5/p25, > 10000 nM; on CDK9/cyclin T it was 320 nM; on CLK1, 12 nM; at CLK2, 30 nM; at CLK3, 700 nM. The IC50 was 12 nM at CLK4; 14 nM on DYRK1A [2]; 20 nM on DYRK1B; 15 nM at DYRK2; 10 nM on DYRK3; > 10000 nM at CK2. Also, the IC50 on PIM1 was found to be 210 nM. Also, in the assay with Tg(Dyrk1a) mice, the “Behavioural effect in NOR test” value is “beneficial behavioural effects”.

As a reminder, the IC50 is the point on the concentration scale where inhibition reaches its midpoint.
